The text below walks through data of article PMC11821258 (Molecules, 2025).

Assay [1] concerns MV4-11 cells. Kind of assay: Apoptosis determination via Annexin V and PI staining. Particulars: MV4-11, 24 h. It is filed as cell-based, human. The procedure:
Camptothecin at a concentration of 0.05 uM was used as a positive control. After incubation, the cells were collected and counted with a hemocytometer, and 1×10^5 cells were washed twice with PBS. APC-Annexin V (Becton Dickinson, Pharmingen, Franklin Lakes, NJ, USA) was dissolved to the concentration of […] in a binding buffer (10 mM HEPES/NaOH, pH 7.4; 150 mM NaCl; 5 mM KCl; 1 mM MgCl2; and 1.8 mM CaCl2) (HIIET, Wrocław, Poland), and the cells were suspended in 200 µL of this solution. After 15 min of the incubation in the dark at room temperature, 20 µL of propidium iodide (PI) solution (0.02 mg/mL) was added. Data acquisition was performed by conducting flow cytometry using a BD LSRFortessa cytometer (BD Bioscience, San Jose, CA, USA). The compounds were tested at least three times independently. Results were analyzed using Flowing software 2.5.1 (Turku, Finland). […] Double-negative cells were live cells, PI+/Annexin V+ were late apoptotic cells, PI-/Annexin V+ were early apoptotic cells, and PI+/Annexin V- were necrotic cells.

In assay [2] the test system is caspase-3/7 in MV4-11 cells. Put plainly: Caspase-3/7 activity determination. It counts as cell-based, human. Particulars: MV4-11, positive control. The procedure: The MV4-11 cells were seeded on 48-well plates to the final volume of 1 mL. […] After incubation, the cells were collected and centrifuged (5 min, 4 °C, 250× g). Cells were suspended in 50 µL of ice-cold lysis buffer (50 mM HEPES; 10% (w/v) sucrose; 150 mM NaCl; 2 mM EDTA; 1% (v/v) Triton X-100, pH 7.3; and HIIET, Wrocław, Poland) and incubated for 30 min at 4 °C. After the incubation, 40 µL of each sample was transferred to a white 96-well plate (Corning, USA) containing 160 µL of the reaction buffer (20 mM HEPES; 10% sucrose; 100 mM NaCl; 1 mM EDTA; 10 mM DTT; and 0.02% Trition X-100, pH 7.3) (HIIET, Wrocław, Poland) with a 9 µM AC-DEVD-AMC (Cayman Chemical, Ann Arbor, MI, USA) fluorogenic substrate (λex = 360 nm, λem = 460 nm). The correlation of the fluorescence increase with the caspase-3/7 level was continuously recorded at 37 °C for 120 min using Biotek Synergy H4 (Biokom, Warsaw, Poland). Compounds were tested in duplicates in single experiments, and each experiment was repeated at least three times independently. Results were normalized to the number of cells in each well and are reported as the mean relative caspase-3/7 activity compared to the untreated control sample ± SD.

Assay [3] concerns human colon cancer HCT116 cells. Particulars: HCT116, literature data ref 36; cited from earlier work.
The test system of assay [4] is human breast cancer MCF-7. Particulars: MCF-7, literature data ref 36; cited from earlier work.
The subject of assay [5] is human biphenotypic B myelomonocytic leukemia MV4-11. Particulars: MV4-11, literature data ref 36; cited from earlier work.
For assay [6], the system named is human prostate adenocarcinoma PC-3. Particulars: PC-3, literature data ref 36; cited from earlier work.
In assay [7] the test system is human normal epithelial cells from the mammary gland (MCF-10A). Particulars: literature data ref 36; cited from earlier work.
In assay [8] the test system is human lung carcinoma A549. Particulars: A549, literature data ref 36; cited from earlier work.

On to `CC[C@@]1(O)C(=O)OCc2c1cc1n(c2=O)Cc2cc3ccccc3nc2-1` [camptothecin, reference compound], for which, in assay [1], the induction of apoptosis result is reported as “induced apoptosis”. Also, the “activity of caspase-3 in comparison to control cells” value in assay [2] is listed as 5 fold.

Regarding `COc1cccc2c1C(=O)c1c(O)c3c(c(O)c1C2=O)C[C@@](O)(C(=O)CO)C[C@@H]3O[C@H]1C[C@H](N)[C@H](O)[C@H](C)O1` [C, doxorubicin], the IC50 in assay [3] was 118 ± 20 nM; in assay [4], 150 ± 15 nM; in assay [5] it was 21 ± 8 nM; in assay [6], 1270 ± 200 nM; in assay [7], 114 ± 13 nM; in assay [8] it was 40 ± 12 nM.

In general, IC50 refers to the midpoint of a concentration-inhibition curve.
